The values below come from US20110295006A1, “CYCLIC DIPEPTIDES AS FEED ADDITIVES” (EVONIK DEGUSSA GMBH, priority 2010, published 2011).

The subject of series [1] is digestive enzymes from rainbow trout. Kind of series: In vitro digestion tests with digestive enzymes from rainbow trout. Type of series: in vitro ADME, Oncorhynchus mykiss. To be noted: pH 9. The procedure:
(§1) The diketopiperazines were digested in vitro with digestive enzymes from carnivorous rainbow trout and omnivorous mirror carp. For this, the enzymes were removed from the digestive tracts of fishes and shrimps. The enzyme solutions obtained were then added to the diketopiperazines. For better comparability of the digestibility of dipeptides of various species, identical conditions were selected for the in vitro digestion studies (37° C., pH 9).
a) Isolation of the Digestive Enzymes from Rainbow Trout (Oncorhynchus mykiss)
The digestive enzymes were isolated based on the method of EID and MATTY (Aquaculture 1989, 79, 111-119). For this, the intestine was removed from five one-year-old rainbow trout (Oncorhynchus mykiss) and processed as described in Example 11. 56 ml of enzyme solution of the intestinal mucosa was obtained from 5 rainbow trout. The solution was stored in the dark at 4° C.
The in vitro studies were carried out as in Example 11. The conversion was determined as the quotient of the content of methionine or methionylmethionine (Met-Met) and the content of cyclo-Met-Met (see FIG. 3).
The test from Example 12b) was carried out similarly, with the cyclic dipeptides cyclo-D-Met-L-Phe and cyclo-D-Met-L-Lys (see FIGS. 7 and 8).

The nature of series [2]: Blank without enzyme solution (purely chemical cleavage rate). The series is classed as physicochemical. To be noted: no enzyme solution. The procedure:
DD/LL-cyclo-Met-Met was taken up in TRIS/HCl buffer solution and the enzyme solution was added to it. As comparison and for assessing the purely chemical cleavage rate, in each case a blank was prepared without enzyme solution (see Table 1). A sample was taken from time to time and its composition was detected and quantified using a calibrated HPLC. The conversion was determined as the quotient of the content of methionine or methionylmethionine (Met-Met) and the content of DD/LL-cyclo-Met-Met (see FIG. 4). […] [table] The in vitro studies were carried out as in Example 11. The conversion was determined as the quotient of the content of methionine or methionylmethionine (Met-Met) and the content of cyclo-Met-Met (see FIG. 3). […] [table] The in vitro studies were carried out as in Example 11. The conversion was determined as the quotient of the content of methionine or D-Met-L-Thr and the content of cyclo-D-Met-L-Thr (see FIG. 9). […] [table]

A short description of series [3]: Solubility (water, pH, bile/water mixtures). The series is classed as physicochemical.
Series [4] in a line: Leaching behavior from feed in water. The series is classed as physicochemical.
Series [5] is described as follows: Pelletizing and extrusion stability in feed production. The series is classed as physicochemical.
The subject of another series is Litopenaeus vannamei. To be noted: feeding tests; Forster and Dominy 2006; cited from earlier work.
Series [6] deals with digestive enzymes from mirror carp. Kind of series: In vitro digestion tests with digestive enzymes from mirror carp. The series is classed as in vitro ADME, Cyprinus carpio morpha noblis. To be noted: pH 9. The procedure: as §1
a) Isolation of the Digestive Enzymes from Mirror Carp (Cyprinus carpio morpha noblis)
The digestive enzymes were isolated based on the method of EID and MATTY (Aquaculture 1989, 79, 111-119). For this, the intestine was removed from six one-year-old mirror carp (Cyprinus carpio morpha noblis), rinsed with water, cut open lengthwise and in each case the intestinal mucosa was scraped off. This was comminuted, together with crushed ice, in a mixer. The resultant suspension was treated with an ultrasonic rod, to disrupt any cells that were still intact. In order to separate the cell constituents and fat, the suspension was centrifuged for 30 minutes at 4° C., the homogenate was decanted off and sterilized with a trace of thimerosal. 49 ml of enzyme solution of the intestinal mucosa was obtained from 6 mirror carp. The solution was stored at 4° C. in the dark.
DD/LL-cyclo-Met-Met was taken up in TRIS/HCl buffer solution and the enzyme solution was added to it. As comparison and for assessing the purely chemical cleavage rate, in each case a blank was prepared without enzyme solution (see Table 1). A sample was taken from time to time and its composition was detected and quantified using a calibrated HPLC. The conversion was determined as the quotient of the content of methionine or methionylmethionine (Met-Met) and the content of DD/LL-cyclo-Met-Met (see FIG. 4).
The test from Example 11b) was carried out similarly, with the cyclic dipeptides cyclo-L-His-L-His and cyclo-D-Met-L-Leu (see FIGS. 5 and 6).

For a further series, the system named is ruminants. To be noted: disclosed in WO00/28835; cited from earlier work.
A further series relates to chicken. To be noted: Baker et al. 1982; cited from earlier work.

As to `CSCCC1NC(=O)C(CCSC)NC1=O` (racemic) [DD/LL/meso-cyclo-Met-Met, 3,6-bis[2-(methylthio)ethyl]-2,5-piperazinedione], the “enzymatic cleavage by digestive enzymes of rainbow trout” value (“enzymatic cleavage … of rainbow trout” below) in [1] (in vitro, 37° C.) is “can be cleaved”. Moreover, in [2] (TRIS/HCl buffer pH 9.5, 37° C.), the “conversion in the blank to dipeptide DD/LL/meso-Met-Met or DL-methionine” value is given as “hardly any conversion”. In series [3], the solubility entry was “low solubility”. For the same compound, in [4], the leaching behavior result is given as “particularly good leaching behavior”. The “pelletizing and extrusion stability” value in series [5] is “good pelletizing and extrusion stability”.
Turning to `CSCCC(N)C(=O)O` (racemic) [DL-methionine], the “efficacy relative to L-methionine” value in the series with Litopenaeus vannamei is “same efficacy as L-methionine”.
With `CSCCC1NC(=O)C(CCSC)NC1=O` (centres unmarked) [DD/LL-cyclo-Met-Met, 3,6-bis[2-(methylthio)ethyl]-2,5-piperazinedione], the “enzymatic cleavage by digestive enzymes of mirror carp” value (shortened to “enzymatic cleavage … of mirror carp”) in series [6] (in vitro, 37° C.) was “can be cleaved”. Further, the “reaction in the blank to dipeptide DD/LL-Met-Met or DL-methionine” value in [2] (TRIS/HCl buffer pH 9.5, bile, 37° C.) is “hardly any reaction”.
For the compound `CSCCC(O)C(=O)OC(C)C` (centres unmarked) [HMBi], the biological value result with ruminants is on record as “at least 50%”.
`CSCC[C@H]1NC(=O)[C@@H](CCSC)NC1=O` [cyclo-D-Met-D-Met]: the “enzymatic cleavage … of mirror carp” value in series [6] (in vitro, 37° C.) is listed as “can be cleaved”. Further, in series [1] (in vitro, 37° C.), the “enzymatic cleavage … of rainbow trout” value is given as “can be cleaved”.
For `CSCC[C@@H]1NC(=O)[C@@H](CCSC)NC1=O` [cyclo-D-Met-L-Met], in series [6] (in vitro, 37° C.), the “enzymatic cleavage … of mirror carp” value is “can be cleaved”. The “enzymatic cleavage … of rainbow trout” value in series [1] (in vitro, 37° C.) is “can be cleaved”.
In the case of `CSCC[C@H]1NC(=O)[C@H]([C@@H](C)O)NC1=O` [cyclo-D-Met-L-Thr, 3-(R)-[2-(methylthio)ethyl]-6-(S)-(1-(R)-hydroxyethyl)-2,5-piperazinedione], the “conversion in the blank to dipeptide D-Met-L-Thr or free amino acids” value in series [2] (TRIS/HCl buffer pH 9.5, 37° C.) is “hardly any conversion”.
Take `CSCC[C@@H]1NC(=O)[C@H](CCSC)NC1=O` [cyclo-L-Met-L-Met]: in series [6], the “enzymatic cleavage … of mirror carp” value was “can be cleaved”. The “enzymatic cleavage … of rainbow trout” value in [1] was “can be cleaved”.
As for poly-L-methionine, the biological value entry in the series with chicken was “no biological value”.
